Values of other authors as cited in patent publication US20110177042A1, “Method for Dedifferentiating Melanocytes” (priority 2008, published 2011).

Test system: Notch1
Settings: identified in cited literature (Xiao 2009; Adler 2008; Stockhausen 2005)

Compound	Notch1 activation
O=C(CCCCCCC(=O)NO)NO [suberoyl bis-hydroxamic acid]	strong Notch1 activators
CCCC(CCC)C(=O)O [valproic acid]	strong Notch1 activators
